Data: patent US20230233550A1, “TREATMENT FOR THE INFLAMMATORY BOWEL DISEASE” (priority 2020, published 2023)

Tests used:
[1] = test system: DSS-induced colitis; experiment: DSS-induced colitis; format: in vivo, male C57 mice
Description: The 8 to 10 week old male C57 mice (18-20 g) were used in the study. Animals were divided into two experimental groups: vehicle control and compound of formula (Ia). Same day animals were provided 2% dextran sulfate sodium (DSS) solution in water for 7 days. Animals were treated with vehicle or compound of formula (Ia) (15 mg/kg) by oral route daily for 10 days. Body weight was recorded daily for 10 days. Disease activity score was evaluated based on stool consistency and rectal bleeding (Kim JJ et al., 2012). Relative colon length was measured. Colon myeloperoxidase (MPO) activity was estimated (Kim JJ et al., 2012).

[2] = test system: TNBS-induced colitis; experiment: TNBS-induced colitis; format: in vivo, Female BalbC mice; details: 15 mg/kg orally, Balb/c mice
Description: Female BalbC mice (6-8 weeks old) were used in the study. Mice were sensitized by topical application of 1% trinitrobenzene sulfonic acid (TNBS) in acetone/olive oil solution (4:1). After 7 days of sensitization, mice were challenged with 2.5% TNBS solution by intra-rectal route administered 5 mL/kg of body weight under anesthesia. Mice were monitored for development of disease over 5 days. TNBS-treated mice were randomly divided into 2 groups: TNBS-control (TNBS) and TNBS + compound of formula (Ia) (15 mg/kg, orally). Treatment was started on one day before TNBS challenge (2.5 %) and continued up to day 5 after TNBS challenge (2.5%). Animals were monitored for body weight change daily for 5 days. Intestinal permeability was estimated by Evans blue method (Han ED et al., 2002).

`O=C(O)CNC(=O)c1c(O)c2ccccc2n(OCC2CC2)c1=O` [Compound of formula (Ia), Desidustat] was tested, and the “reduction of colon MPO against vehicle control” value ([1]; 15 mg/kg oral daily for 10 days, colon myeloperoxidase activity) was 74.9 ± 5.0%, the “decrease in disease activity score when compared with vehicle control” value ([1]; 15 mg/kg oral daily for 10 days, score based on stool consistency and rectal bleeding) was 31.8 ± 9.8% and the “increase in body weight against vehicle control” value ([1]; 15 mg/kg oral daily, after ten days of treatment, 2% DSS for 7 days) was 49.0 ± 12.9%. For the same compound, the “weight gain when compared with vehicle control” value ([2]; 5th day after TNBS challenge) was 17.4 ± 1.4% and the “decrease in intestinal permeability when compared against vehicle control” value ([2]; Evans blue method) was 51.7 ± 4.4%.
